Laboratory results published in US20130071853A1, “METHODS FOR IDENTIFYING COMPOSITIONS THAT ALTER WILDTYPE EXPRESSION OF GENES AND PROTEINS IN A PLANT CELL” (Dow Agrosciences LLC, priority 2010, published 2013).

Experiments:
[1] = test system: Arabidopsis genes on the microarray; assay: Agilent single-color global gene expression profiling of Arabidopsis leaf tissue 2 h after spray treatment; format: in vivo, Arabidopsis thaliana (variety Columbia); settings: for Regulation^a: direction per probe/gene
Protocol: Thirteen Arabidopsis seeds (variety Columbia) were planted in 6 inch pots filled with sandy clay medium. After emergence, pots were thinned to 10 plants per pot. Plants were grown in a greenhouse with a 12 hr light cycle and watered every 24 hours or as needed to maintain stress free conditions. When the Arabidopsis plants reached the vegetative (>BBCH 11<BBCH 30) stage (approx. 2-3 wks from planting), the pots were arranged into a randomized complete block design with 10 plants with 3 replications per treatment. The plants were treated using a standard CO2 sprayer with 20 gal/A carrier volume.
Control: Oil/Adjuvant check (0.035% v/v SILWET adjuvant L-77)
Compound 1: A17492F (MCP) 25 g ai /ha+0.035% SILWET adjuvant
Compound 2: COMPASS fungicide 1x+0.035% SILWET adjuvant
Combination: 1 MCP 25 g/ha+COMPASS fungicide 1x
(§1) Two hours after the spray application, leaves that had received the spray were sampled. For each treatment, two leaves were taken from each of the 10 plants and combined into a 50 ml polypropylene tube. Samples were immediately frozen on dry ice and sent on dry ice overnight to the laboratory for processing.
(§2) A single-color Agilent global gene expression profiling design was used to define differentially expressed genes for treated in reference to untreated Arabidopsis leaf tissues. Three technical array replicates (Agilent Technologies Inc., Santa Clara, Calif.) were hybridized to compare different transcript abundance between leaf tissues treated with Strobilurin and/or 1-MCP in reference to untreated leaf tissues. Arabidopsis slides, Product #G2519F, Design ID 021169 were obtained from Agilent Technologies.
(§3) Samples of 30-50 mg of frozen leaf tissues were resuspended in 450 μL of extraction buffer RLT from the RNeasy Kit for RNA extraction (Qiagen, Valencia, Calif.). Tissues were then ground to a fine powder by adding one 3 mm grinding bead to each frozen sample and grinding for 3 minutes using a GenoGrinder at a rate of 300, 1×. Total RNA was purified following the manufacturer's instructions. Purified total RNA was then quantified and quality controlled using a NanoDrop spectrophotometer and visualized by standard 1% Agarose gel electrophoresis.
(§4) For labeling, a total of 1.0 μg of purified RNA from treated and untreated tissues was reverse transcribed, amplified and labeled with Cy3-CTP following the Agilent (Santa Clara, Calif.) one-color microarray-based gene expression QuickAmp labeling protocol. Since Agilent Arabidopsis microarrays for gene expression (Product #G2519F, Design ID 021169) contain internal spike-in controls a one-color RNA spike-in kit (Agilent, Santa Clara, Calif.) was also labeled according to manufacturer's instructions. Samples were reverse transcribed using MMLV Reverse Transcriptase and amplified using a T7 RNA Polymerase. After amplification cRNA was purified using Qiagen's RNeasy mini spin columns and quantified using a NanoDrop spectrophotometer. Specific activity for Cy3 was determined by the following formula: (Concentration of Cy3)/(Concentration of cRNA)*1000=pmol of Cy3 per μg of cRNA. Samples for hybridization were normalized to 825 ng with a specific activity of >8.0 pmol of Cy3 per μg of cRNA.
Oligo gene expression arrays were hybridized using the Agilent Technologies (Santa Clara, Calif.) Gene Expression Hybridization kit, Wash Buffer kit, Stabilization and Drying Solution following the manufacturer's instructions. Hybridizations were carried out on a fully automated TECAN HS4800 PRO (TECAN U.S., Research Triangle Park, N.C.) hybridization instrument. The hybridization mixture was injected at 65° C. and incubated with agitation for 17 hrs after following a slide pre-hybridization step at 65° C. for 30 seconds. Slides were then washed at 37° C. for 1 minute using the Agilent GE Wash #1 followed by a second wash at 30° C. with Agilent GE Wash #2 for 1 minute and a final drying step using Nitrogen gas for 2 minutes and 30 seconds at 30° C. […]

[2] = test system: maize transcripts (corn genes on the microarray); assay: Agilent single-color global gene expression profiling of corn leaf tissue 2 h after spray treatment; format: in vivo, Zea maize (corn); settings: for Regulation: Table 1: corn genes, 1-MCP alone, direction of change per probe/gene
Protocol: Hybrid corn seed (one plant per pot) was planted in 1 quart pots filled with FAFARD 3B™ potting mix (Conrad Fafard, Inc., Agawam, Mass.). Corn was grown in a greenhouse with a 12 hr light cycle and watered every 24 hours or as needed to maintain stress free conditions. When the corn plants reached the V10 growth stage, the pots were arranged into a randomized complete block design with 4 plants with 3 replications per treatment. Corn plants were treated using a standard CO2 sprayer with 20 gal/acre carrier volume.
Treatments were: • Control: Oil/Adjuvant check using 0.035% v/v the organosilicone surfactant SILWET L-77 (Helena Chemical Co., Collierville, Tenn.) • Compound 1: A17492F (MCP) 25 g active ingredient/hectare (ai/ha)+0.035% SILWET surfactant • Compound 2: COMPASS fungicide 1x+0.035% SILWET surfactant • Combination (1 and 2): 1 MCP 25 g/ha+COMPASS fungicide 1x
as §1, with “application, upper” for “application,”, “plant, five, 2 inch pieces of” for “treatment, two”, “taken, cut into small pieces” for “taken from each of the 10 plants”
as §2, with “maize” for “Arabidopsis”, “the COMPASS fungicide” for “Strobilurin”, “tissues.” for “tissues. Arabidopsis slides, Product #G2519F, Design ID 021169 were obtained from Agilent Technologies.”
A Dow AgroSciences custom generated 60-mer comprehensive transcriptome-wide Zea maize oligonucleotide array was used to carry out microarray hybridizations. This array represents more than 58,000 different maize transcripts (Agilent Technologies Inc., Santa Clara, Calif.) obtained from public data sources. Microarray chips were printed using an Agilent format 2×105K, including 10 copies of 100 probes, 2 copies of 44,196 probes 1 copy of 14,355 probes in addition to 1,325 Agilent spike-in controls. The 60-mer unique and specific oligonucleotides were synthesized in-situ using the Sure-Print technology from the manufacturer.
as §3, with “RNeasy™” for “RNeasy”, “GenoGrinder instrument” for “GenoGrinder”, “NanoDrop™” for “NanoDrop”
as §4, with “QuickAmp™” for “QuickAmp”, “Dow AgroSciences-generated Zea maize AGILENT™” for “Agilent Arabidopsis”, “(P/N G4503A,” for “(Product #G2519F,”, “022232)” for “021169)”, “(Concentration of Cy3)/(Concentration of cRNA)*1000=pmol of Cy3 per μg of cRNA. Samples for hybridization were normalized to 825 ng with a specific activity of >8.0 pmol of Cy3 per μg of cRNA.” left out
Oligo gene expression arrays were hybridized using the Agilent Technologies (Santa Clara, Calif.) Gene Expression Hybridization kit, Wash Buffer kit, Stabilization and Drying Solution following the manufacturer's instructions. Hybridizations were carried out on a fully automated TECAN HS4800 PRO™ (TECAN U.S., Research Triangle Park, N.C.). […]

[3] = Arabidopsis leaves, 2 h after spray, ≧5 fold change
[4] = corn leaves, 2 h after spray, ≧2 fold change

With `CC1=CC1` [Compound 1-MCP, 1-methylcyclopropene] the “overall effect of treatment on gene expression” value ([1]; Arabidopsis) was “reduction in stress-related gene expression”, the “genes differentially expressed on the microarray vs untreated” value [1, 3] was 411 genes and the “subset of genes changed uniquely in response to this treatment” value [1, 3] was 202 genes. The “common genes following treatment with either 1-MCP or COMPASS alone” value ([1]; Arabidopsis, ≧5 fold change) was 165 genes, the “Regulation^a” value ([1]; Table 3: Arabidopsis genes, 1-MCP alone, probe A_84_P20410) was “up” and the “Regulation^a” value ([1]; Table 3: Arabidopsis genes, 1-MCP alone, probe A_84_P786760) was “down”. The “Regulation^a” value ([1]; Table 5: common genes, first column pair (a), probe A_84_P13916) was “down”, the “Regulation^a” value ([1]; Table 5: common genes, first column pair (a), probe A_84_P507728) was “up” and the Regulation ([2]; probe ZmOL3000012) was “up”. For the same compound, the Regulation ([2]; probe ZmOL3007441) was “down”, the Regulation ([2]; probe ZmOL3020067) was “Down” and the Regulation ([2]; probe ZmOL3050321_2) was “Up”. For the same compound, the “expression of carbonic anhydrase” value ([2]; corn) was “decreased”, the “overall effect of treatment on gene expression” value ([2]; corn) was “reduction in stress-related gene expression” and the “genes differentially expressed on the microarray vs untreated” value [2, 4] was 934 genes. The “subset of genes changed uniquely in response to this treatment” value [2, 4] was 362 genes and the “genes involved in translation whose expression changed that were induced” value ([2]; corn, genes unique to the treatment) was 9 out of 10.
